In patent US12329799B2, “Peptidyl inhibitors of calcineurin-NFAT interaction” (Ohio State Innovation Foundation, priority 2018, dated 2025):
Positions of bridges follow the written chain, without caps; N, C: chain ends. Non-standard residues stand in square brackets, D forms with d. Residues, ends and D or L forms follow the SMILES beside them. Chains are numbered I, II in the order given. *: point of attachment. 2Nal = N[C@@H](Cc1ccc2ccccc2c1)C(=O)O; Val(3-OH) = CC(C)(O)[C@H](N)C(=O)O; Tle = CC(C)(C)[C@H](N)C(=O)O; X1 = O=C(c1ccnc(Cl)c1Cl)*; AEEA = NCCOCCOCC(=O)O

Columns and labels:
HCT116 cell spheroids = assay: Cellular entry and intracellular stability by MALDI-TOF MS imaging; type: cell-based; settings: 5 μM, 24 h of incubation
Description: Intracellular Stability. HCT116 cell spheroids in RPMI-1640 medium supplemented with 10% FBS and 1% penicillin/streptomycin were treated with 5 μM CNI103 for 4 or 24 h. Spheroids were washed three times with warm DPBS, quickly frozen, embedded in a solid support and cryo-sectioned. Prior to analysis, sinapinic acid was sublimed onto individual slides, which were subsequently imaged using a Bruker ultrafleXtreme MALDI-TOF-TOF mass spectrometer. The spectra were analyzed for intact CNI103 as well as proteolytic degradation fragments of interest. The MS signal intensity data were used to generate Heatmaps, scaled relative to the most intense signal, for each time point and fragment.

[1] = Caco-2 permeability assay; type: in vitro ADME; settings: human, Caco-2, pH 7.4
Description: (§1) Caco-2 permeability assay. To assay the permeability of test compounds by Caco-2 cell model, Caco-2 cells were cultured to confluency before being trypsinized and seeded onto filter transwell inserts at a density of 30,000 cells/well in DMEM medium. Cells were cultured in a humidified atmosphere with 5% CO2 at 37° C. After overnight attachment, cell medium was replaced with fresh medium at both apical and basolateral sides every other day. The cell monolayers are ready for the assay 20 days post seeding. […] The dosing solution at 10 μM was obtained by diluting 10 mM stock solution in HBSS medium (pH 7.4, 25 mM HEPES) freshly before the assay. Terfenadine (25 ng/mL) and Tolbutamide (50 ng/mL) were added into dosing solution as internal standards. […] The culture medium from either the basolateral side (plate B) or apical side (plate A) were aspirated and then rinsed with HBSS medium once. Afterwards, the dosing medium was added to either basolateral or apical side. Following the incubation, 100 microliter samples from both sides were harvested at time 0 and time 90 min. Samples were quenched with acetonitrile/methanol (1:1 v/v), centrifuged, and analyzed on a Shimadzu reversed-phase HPLC and Sciex API4500 Q trap instrument.
(§2) Permeability parameters were calculated using the following equations and shown in Table 10: Papp=(Conc.receiver,90 min*Volumereceiver)/(Time*Membrane Area*Conc.donor,0 min) Efflux Ratio=Papp[B to A]/Papp[A to B]

Caco-2 cell monolayers = assay: Caco-2 permeability assay; type: in vitro ADME
Description: as §1, §2

[2] = Liver microsome stability assay; type: in vitro ADME; settings: mouse liver microsome
Description: Liver microsome stability assay. Liver microsome stability was assessed using mouse microsome (cat. M1000, XenoTech). Ten mM stock solution of CNI103 was similarly prepared in DMSO. One hundred micromolar of CNI103 solution was prepared by diluting the DMSO stock in phosphate buffer (50 mM potassium phosphate, pH 7.4). To assay the stability, liver microsomes (final concentration 0.5 mg/mL) were mixed with testing samples gently and incubated at 37° C. for 5 min. At varying time points post reaction (0, 5, 15, 30, and 60 min), 25 microliter aliquots were withdrawn and each aliquot (25 microliter) was quenched with 300 μL of an internal standard solution (25 ng/mL terfenadine in 1:1 v/v methanol/acetonitrile) followed by vigorous vortexing and centrifugation. To assess metabolism by P450 enzymes, the microsome degradation reaction was supplemented with NADPH (final 1 mM) followed by gentle mixing. 100 μL aliquots of the reaction mixture were withdrawn at 0, 30, or 60 min, diluted two fold with distilled water, and subjected to LC-MS/MS analysis on a reversed-phase HPLC coupled with Sciex 4500 Q-trap based quantification.

[3] = Stability in mouse hepatocytes; type: in vitro ADME
Description: (§3) Stability of CNI103 in mouse hepatocytes. Hepatocyte stability was assessed by using mouse hepatocyte (cat. M005052, BioIVT). Mouse hepatocytes were revived following manufacturer's procedure with Cryopreserved Hepatocyte Recovery Medium and used for the assay when cell viability was greater than 70%. Testing compound (at 2 μM) was mixed with mouse hepatocytes at 37° C. in a humidified incubator with 5% CO2. Final hepatocyte cell density was 2 million per mL. […] of the resulting supernatant was diluted two fold with distilled water and analyzed by reversed-phase HPLC coupled with Sciex 4500 Q-trap based quantification.

mouse hepatocytes = assay: Stability in mouse hepatocytes; type: in vitro ADME; settings: 2 μM
Description: as §3

in vitro = in vitro ADME; set-up: dose or concentration left out as unconfirmed; settings: mouse
Description: Plasma binding was assessed using mouse plasma obtained from in-life studies. CNI103 was diluted to […] in pre-warmed mouse plasma. The solution was added to the left chamber of a commercial plate based RED (rapid equilibrium dialysis) device. Isotonic sodium phosphate buffer (100 mM sodium phosphate, 100 mM sodium chloride, pH 7.4) was added to the outer chamber of the RED device and the plate was incubated at 37° C. for five hours. Aliquots of the buffer and the plasma were withdrawn before and after the incubation and the concentrations of free and bound test compound were determined by LC/MS/MS analysis. To test for plasma stability, the dosing solution was also incubated at 37° C. for 5 hours and the concentration of CNI103 was determined by LC/MS/MS analysis as described above.
The calculation of percentage binding is calculated using the following equations and the results are presented in Table 13: Binding %=(Cpe−Cb)/Cpe×100 • Cpe=Conc. of test compound in plasma at equilibrium • Cb=Conc. of test compound in buffer at equilibrium % Stability of test compound=(Conc. of stability sample/Conc. of time zero sample)×100 % Recovery=(Cpe+Cb)/Conc. of stability sample×100

[4] = Stability in simulated gastric fluid (SGF); type: in vitro ADME
Description: (§4) Stability of CNI103 in simulated gastric fluid (SGF) was evaluated by diluting CNI103 (final 5 μM) in FaSSGF buffer (pH 1.2), which was prepared from FaSSGF powder (cat no. FFF01, BioRelavant). Similarly, stability of CNI103 in simulated intestinal fluid (SIF) was evaluated by diluting CNI103 (final 5 μM) in FaSSIF buffer (pH 6.5), which was prepared from FaSSIF powder (cat no. FFF-1017-B, BioRelavant) supplemented with Lecithin and maleic acid. The solutions were incubated at 37° C. for 5, 15, 30, 60, or 120 min, and the concentration of remaining CNI103 was determined by LC/MS/MS analysis as described above.

[5] = Stability in simulated intestinal fluid (SIF); type: in vitro ADME
Description: as §4

For CC[C@H](C)[C@H](NC(=O)[C@@H](NC(=O)c1ccnc(Cl)c1Cl)C(C)(C)C)C(=O)N[C@H](C(=O)N[C@H](C(=O)N[C@H](C(=O)N[C@@H](CCC(N)=O)C(=O)N[C@@H](Cc1c[nH]cn1)C(=O)N[C@H](CC(C)C)C(=O)N[C@@H](CO)C(=O)NCCOCCOCC(=O)N[C@@H](CCCCNC(=O)CC[C@@H]1NC(=O)[C@@H](CCCNC(=N)N)NC(=O)[C@H](CCCNC(=N)N)NC(=O)[C@@H](CCCNC(=N)N)NC(=O)[C@H](CCCNC(=N)N)NC(=O)[C@H](Cc2ccc3ccccc3c2)NC(=O)[C@@H](Cc2ccccc2)NC1=O)C(N)=O)[C@@H](C)O)[C@@H](C)CC)C(C)(C)O [CNI103, (DCNA)-Tle-Ile-Bhv-Ile-Thr-Gln-His-(D-Leu)-Ser-miniPEG-Lys{[cyclo-(Gln-(D-Arg)-Arg-(D-Arg)-Arg-(2-Nal)-(D-Phe)]}-NH2] (I: X1-[Tle]I[Val(3-OH)]ITQH[dL]S[AEEA]K-NH2 / II: cyclo([2Nal]R[dR]R[dR]E[dF]); amide I:11-II:6 (inferred); ring closure inferred), which intracellular degradation (HCT116 cell spheroids) is on record?
The intracellular degradation was “No significant degradation product signal”.

What about the Papp A→B at 90 min, 10 μM ([1]; N = 2, 10 μM, 90 min) of the same compound?
The Papp A→B at 90 min, 10 μM was 7.5 ×10⁻⁶ cm/s.

What about the Papp B→A at 90 min, 10 μM ([1]; N = 2, 10 μM, 90 min) of the same compound?
Its Papp B→A at 90 min, 10 μM is 2.1 ×10⁻⁶ cm/s.

And the efflux ratio at 90 min, 10 μM ([1]; Papp[B to A]/Papp[A to B])?
The efflux ratio at 90 min, 10 μM was 0.3.

What about the “Pgp Substrate” value (Caco-2 cell monolayers) of the same compound?
The value was “No”.

And the remaining at 0.25 h ([2]; liver microsomes, pH 7.4, 15 min, read-out: % remaining (+NADPH))?
Its remaining at 0.25 h is 95.8%.

What about the remaining at 0.5 h ([2]; liver microsomes, pH 7.4, 30 min, read-out: % remaining (+NADPH)) of the same compound?
The remaining at 0.5 h was 76%.

And the remaining at 1 h ([2]; liver microsomes, pH 7.4, 60 min, read-out: % remaining (+NADPH))?
The remaining at 1 h was 75.1%.

What about the “% remaining (+NADPH)” value ([2]; 0 min) of the same compound?
Its value is 100.0%.

What about the “% remaining (−NADPH)” value ([2]; 0 min) of the same compound?
Its value is 100.0%.

And the “% remaining (+NADPH)” value ([2]; 5 min)?
Its value is 131.1%.

What about the “% remaining (−NADPH)” value ([2]; 30 min) of the same compound?
The value was 113.6%.

What about the “% remaining (−NADPH)” value ([2]; 60 min) of the same compound?
Its value is 70.8%.

What about the remaining at 0.25 h, 2 μM ([3]; 15 min) of the same compound?
The remaining at 0.25 h, 2 μM was 103%.

And the remaining at 0.5 h, 2 μM ([3]; 30 min)?
The remaining at 0.5 h, 2 μM was 101%.

And the remaining at 1 h, 2 μM ([3]; 60 min)?
The remaining at 1 h, 2 μM was 120%.

What about the “% remaining” value (mouse hepatocytes; 0 min) of the same compound?
Its value is 100.00%.

What about the “% remaining” value (mouse hepatocytes; 90 min) of the same compound?
The value was 141.77%.

What about the “% remaining” value (mouse hepatocytes; 120 min) of the same compound?
The value was 124.89%.

What about the recovery at 5 hours (in vitro; pH 7.4) of the same compound?
Its recovery at 5 hours is 130%.

And the remaining at 5 h (in vitro; plasma)?
Its remaining at 5 h is 110%.

What about the fraction unbound at 5 h (in vitro; plasma, pH 7.4) of the same compound?
The fraction unbound at 5 h was 0.024.

And the “% remaining” value ([4]; SGF (FaSSGF, pH 1.2), 37° C., 0 min, n = 2)?
Its value is 100.00%.

What about the remaining at 5 min, 5 μM ([4]; simulated gastric fluid (FaSSGF), pH 1.2, SGF, 5 min) of the same compound?
The remaining at 5 min, 5 μM was 93.7%.

What about the remaining at 0.25 h, 5 μM ([4]; simulated gastric fluid (FaSSGF), pH 1.2, SGF, 15 min) of the same compound?
The remaining at 0.25 h, 5 μM was 87.4%.

What about the remaining at 0.5 h, 5 μM ([4]; simulated gastric fluid (FaSSGF), pH 1.2, SGF, 30 min) of the same compound?
The remaining at 0.5 h, 5 μM was 88.3%.

What about the remaining at 1 h, 5 μM ([4]; simulated gastric fluid (FaSSGF), pH 1.2, SGF, 60 min) of the same compound?
Its remaining at 1 h, 5 μM is 106%.

And the remaining at 2 h, 5 μM ([4]; simulated gastric fluid (FaSSGF), pH 1.2, SGF, 120 min)?
The remaining at 2 h, 5 μM was 103%.

And the “% remaining” value ([5]; SIF (FaSSIF, pH 6.5), 37° C., 0 min, n = 2)?
The value was 100.00%.

What about the remaining at 5 min, 5 μM ([5]; simulated intestinal fluid (FaSSIF), pH 6.5, SIF, 5 min) of the same compound?
Its remaining at 5 min, 5 μM is 92.3%.

And the remaining at 0.25 h, 5 μM ([5]; simulated intestinal fluid (FaSSIF), pH 6.5, SIF, 15 min)?
The remaining at 0.25 h, 5 μM was 109%.

And the remaining at 0.5 h, 5 μM ([5]; simulated intestinal fluid (FaSSIF), pH 6.5, SIF, 30 min)?
Its remaining at 0.5 h, 5 μM is 109%.

And the remaining at 1 h, 5 μM ([5]; simulated intestinal fluid (FaSSIF), pH 6.5, SIF, 60 min)?
The remaining at 1 h, 5 μM was 95.9%.

And the remaining at 2 h, 5 μM ([5]; simulated intestinal fluid (FaSSIF), pH 6.5, SIF, 120 min)?
Its remaining at 2 h, 5 μM is 75.6%.
